As usually defined, the Ki is the equilibrium dissociation constant of an inhibitor or competing ligand from its target.

The structures appear in SMILES notation.

Consider one molecule from paper PMC10970734, “Identification of an Intravenous Injectable NK1 Receptor Antagonist for Use in Traumatic Brain Injury” (International Journal of Molecular Sciences, 2024).

Assay [1] has as its target T1, recombinant human NK2 receptor (Homo sapiens, UniProt P21452).
T1 sequence (P21452 1-398): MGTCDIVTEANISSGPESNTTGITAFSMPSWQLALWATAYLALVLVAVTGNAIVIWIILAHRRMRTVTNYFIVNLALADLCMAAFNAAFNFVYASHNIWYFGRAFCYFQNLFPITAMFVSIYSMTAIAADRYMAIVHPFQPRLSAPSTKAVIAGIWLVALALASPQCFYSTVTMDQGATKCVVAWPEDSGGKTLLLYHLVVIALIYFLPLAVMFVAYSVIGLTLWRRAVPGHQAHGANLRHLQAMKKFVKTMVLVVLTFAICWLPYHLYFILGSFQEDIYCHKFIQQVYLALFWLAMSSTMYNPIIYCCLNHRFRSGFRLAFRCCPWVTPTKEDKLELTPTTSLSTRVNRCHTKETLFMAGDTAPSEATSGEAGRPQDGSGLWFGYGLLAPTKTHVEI
Kind of assay: Radioligand binding, recombinant human NK2 receptor.

For another assay, the system named is rodent model of TBI. Briefly: Cognitive function after TBI, Barnes maze. Format: in vivo, Sprague Dawley rats. The note with it: rat TBI, 10 mg/kg 30 min post-injury, 10 days. Here is the method: Cognitive outcome was assessed using the Barnes maze in order to reduce the potential confounding effects that may be associated with tests such as the Morris water maze. In the Barnes maze, animals were placed under a cover in the centre of an elevated 1.2 m diameter board containing 19 holes around the periphery. One hole contained the entrance to a darkened escape tunnel that was not visible from the surface, relying on the animal to use surrounding visual cues to locate the tunnel. The time, in seconds, for the animal to locate and enter the escape tunnel was recorded. Following pre-training, the effect of injury, and post-injury treatment, on the time taken for the animal to locate the tunnel was measured (Figure 7). […]
Injury was induced in halothane-anesthetized (ProVet) male Sprague Dawley rats (400 ± 20 g) using acceleration-induced impact TBI [29, 93]. […] Blood pressure was monitored, both before and after injury, using a femoral arterial line. […]
Motor and cognitive outcomes in animals (n = 6 per group) were assessed using the rotarod and Barnes maze, respectively, as described in detail elsewhere. […] The rotational speed of the device was increased from 0 to 30 r.p.m. and the duration (in seconds) when the animals either completed the task, fell from the rods, or gripped the rods and spun for two consecutive revolutions rather than walking actively was recorded as the rotarod score. […]

The next assay addresses NK1R (Homo sapiens, UniProt P25103). Kind of assay: Radioligand binding, competition for [3H]SP, CHO cells transfected with human NK1R. More on the design: expressed in transfected cells; host or cells: CHO cells (ATCC). To be noted: competition for [3H]SP binding (0.6 nM). As to the method:
The affinity of EUC-001 for the human NK1R was assessed by radioligand binding assays using Chinese hamster ovary (CHO) cells transfected with the human NK1R. Radioligand binding studies, evaluating competition for [^3H]
Radioligand binding assays were performed using CHO cells (ATCC, Middlesex, UK) transfected with the human NK1R (accession number NM_001058). Assays were performed in 50 mM HEPES buffer (pH 7.4; Sigma-Aldrich, St Louis, MO, USA) containing BSA (0.04%; Sigma-Aldrich, St Louis, MO, USA), leupeptin (8 μg/mL; Sigma-Aldrich, St Louis, MO, USA), MnCl2 (3 mM; Sigma-Aldrich, St Louis, MO, USA) and phosphoramidon (2 μM; Sigma-Aldrich, St Louis, MO, USA). In total, 250 μL of membrane suspension was incubated with 125 μL of unlabelled EUC-001 (synthesized by Hoffmann-La Roche, Basel, Switzerland) dissolved in assay buffer, and 125 μL of [^3H]SP (final concentration 0.6 nM; Amersham Biosciences, Amersham, UK). Displacement curves were determined with seven concentrations of EUC-001. Following incubation (60 min at room temperature), the mixture was rapidly filtered through pre-soaked Whatman GF/C filters (Sigma-Aldrich, St Louis, MO, USA) and washed with 2 × 2 mL HEPES buffer (Sigma-Aldrich, St Louis, MO, USA), and bound radioactivity was measured by scintillation counting (Beckman Coulter, Brea, CA, USA). Assays were performed in triplicate in 2 separate experiments.

Sequence of NK1R (P25103 whole entry): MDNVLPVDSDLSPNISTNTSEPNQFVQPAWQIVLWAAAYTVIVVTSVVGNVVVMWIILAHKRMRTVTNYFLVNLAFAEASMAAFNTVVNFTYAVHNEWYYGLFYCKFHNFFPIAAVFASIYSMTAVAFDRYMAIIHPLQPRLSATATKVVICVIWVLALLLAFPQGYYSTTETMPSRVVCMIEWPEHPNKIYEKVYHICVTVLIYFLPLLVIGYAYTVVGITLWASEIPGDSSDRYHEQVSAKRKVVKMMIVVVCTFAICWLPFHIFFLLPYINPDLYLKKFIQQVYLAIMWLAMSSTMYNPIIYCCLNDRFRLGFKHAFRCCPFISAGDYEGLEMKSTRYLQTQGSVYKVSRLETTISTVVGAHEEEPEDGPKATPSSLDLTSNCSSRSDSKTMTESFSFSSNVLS

On to `Cc1ccccc1-c1cc(N2CCN(C)CC2)ncc1C(=O)N(C)Cc1cc(C(F)(F)F)cc(C(F)(F)F)c1` [EUC-001, N-(3,5-Bis-trifluoromethyl-benzyl)-N-methyl-6-(4-methyl-piperazine-1-yl)-4-o-tolyl-nicotinamide], for which the results for the Ki (in assay [1]; on NK1R) were 3.4 µM and 0.000575 µM, respectively. In addition, the “Cognitive function, Barnes maze time to locate escape tunnel” value in the assay with rodent model of TBI is listed as “minimal impact on the performance time”.
